Results on 1 molecule are retold here after patent US20130130305A1, “IN[…] THAT INHIBIT IAA OR A YAP FAMILY” (priority 2010, published 2013).

Structures are written as SMILES.

Assay [1] deals with C. albicans. As to the kind of experiment: IAA-induced filamentation in C. albicans. Format: cell-based, Candida albicans. On the procedure: (§1) Analytical and phenotypic studies were performed in cognate deletion mutants, made in the Σ1278b background. A [^14C]Trp incorporation assay was performed to verify that phenotype observed in the library strain could be recapitulated in the newly constructed E1278b strain. Typically three independent transformants were isolated, confirmed by PCR and used for further studies. Standard culture conditions were used (Sherman et al., Laboratory Course Manual for Methods in Yeast Genetics, Cold Spring Harbor Laboratories Press, Cold Spring Harbor, N.Y., 1986) and analysis of IAA-associated phenotypes were performed as described earlier (Prusty et al., Proc. Natl. Acad. Sci. USA 101:4153-4157, 2004).
IAA induces filamentation in C. albicans: The effects of the secondary metabolites identified in fungi appear to be largely species specific (Chen and Fink, Genes Dev. 20:1150-1161, 2006). […] To test whether the IAA effects could cross species barriers, we exposed wild-type C. albicans, a human pathogen, as well as attenuated mutants in the mitogen-activated protein (MAP) kinase and the cAMP-dependent protein kinase pathways to IAA. […] The cph1Δ/Δefg1Δ/Δ double mutant, which is nonfilamentous under standard laboratory conditions and avirulent in mice, filaments in the oral cavity of immunosuppressed piglets and when embedded in agar (Riggle et al., Infect. Immun. 67:3649-3652, 1999).

For assay [2], the system named is C. albicans. The experiment in a line: Growth on media containing IAA (IAA sensitivity) of C. albicans CAP1 deletion mutants. It counts as cell-based, Candida albicans. On the procedure: as §1
To test if other aspects of IAA regulation in S. cerevisiae were also conserved in C. albicans, we tested Cap1, the C. albicans homolog of Yap, for its sensitivity to IAA.

The test system of the next assay is S. cerevisiae. The experiment in a line: IAA-associated growth inhibition phenotype in S. cerevisiae ald mutants. Format: cell-based, Saccharomyces cerevisiae. Here is the method:
as §1
The ability of a fungus to perceive a small molecule signal that causes it to differentiate into an invasive form has important implications for host-pathogen interactions. To test the hypothesis that mutants with aberrant IAA accumulation also affect dimorphism, we examined diploid filamentation and haploid invasive growth in all ald single mutants and selected combinations of double mutants. […] We also tested a previously reported growth inhibition phenotype associated with exposure to IAA. […] However, these phenotypes are consistent with ald2Δald3Δ mutants producing more IAA than isogenic wild-type strains.

Take `O=C(O)Cc1c[nH]c2ccccc12` [IAA, indole-3-acetic acid]: the filamentation entry in the assay with C. albicans [1] (single mutants efg1Δ/Δ or cph1Δ/Δ, exposed to IAA) is reported as “showed a robust filamentation”; in the assay on C. albicans [1] (wild-type strains, treated with IAA vs untreated cells), “filamented more”. Further, the “growth on media containing IAA” value in the assay with C. albicans [2] (heterozygous and homozygous CAP1 deletion mutants vs isogenic wild type) is given as “grew less well”. The “sensitivity to IAA” value with C. albicans [2] (heterozygous cap1Δ/+ vs wild-type CAP1+/+ or homozygous cap1Δ/Δ) is “intermediate sensitivity”. Besides, the “sensitivity to IAA (growth inhibition)” value in the assay on S. cerevisiae (deletion of both ald2 and ald3 vs wild-type cells) is reported as “increase in sensitivity to IAA”; in the assay on S. cerevisiae (single deletion of an ALD gene vs wild-type cells), “did not affect IAA sensitivity”.
